Measurements: the NIST ThermoML archive (doi:10.1016/j.tca.2004.11.015)
Numbers after ± are expanded uncertainties.

Assay: xn = mol fraction of the nth substance listed
Details: 101.33 kPa, Liquid, Vibrating tube method

NCCO [2-aminoethan-1-ol] + CO
mass density [kg/m3]
Details | 283.15 K | 288.15 K | 293.15 K | 298.15 K | 303.15 K | 308.15 K | 313.15 K | 318.15 K
x1 = 0.012 | 805.83 ± 0.14 | 801.17 ± 0.14 | 796.49 ± 0.15 | 791.8 ± 0.15 | 787.1 ± 0.15 | 782.38 ± 0.15 | 777.63 ± 0.16 | 772.84 ± 0.16
x1 = 0.031 | 813.82 ± 0.14 | 809.2 ± 0.14 | 804.57 ± 0.15 | 799.92 ± 0.15 | 795.25 ± 0.15 | 790.55 ± 0.15 | 785.84 ± 0.15 | 781.09 ± 0.16
x1 = 0.05 | 821.45 ± 0.14 | 816.86 ± 0.14 | 812.26 ± 0.14 | 807.64 ± 0.15 | 803 ± 0.15 | 798.35 ± 0.15 | 793.66 ± 0.15 | 788.95 ± 0.16
x1 = 0.1 | 840.61 ± 0.14 | 836.11 ± 0.15 | 831.59 ± 0.15 | 827.05 ± 0.15 | 822.49 ± 0.15 | 817.92 ± 0.15 | 813.31 ± 0.15 | 808.68 ± 0.16
x1 = 0.15 | 858.27 ± 0.15 | 853.79 ± 0.15 | 849.33 ± 0.16 | 844.86 ± 0.16 | 840.37 ± 0.16 | 835.87 ± 0.16 | 831.33 ± 0.16 | 826.77 ± 0.16
x1 = 0.2002 | 874.67 ± 0.17 | 870.3 ± 0.17 | 865.9 ± 0.17 | 861.49 ± 0.17 | 857.06 ± 0.17 | 852.62 ± 0.17 | 848.14 ± 0.17 | 843.64 ± 0.17
x1 = 0.2501 | 889.65 ± 0.18 | 885.33 ± 0.18 | 880.98 ± 0.18 | 876.62 ± 0.18 | 872.24 ± 0.18 | 867.83 ± 0.19 | 863.41 ± 0.19 | 858.96 ± 0.19
x1 = 0.2974 | 902.94 ± 0.2 | 898.66 ± 0.2 | 894.35 ± 0.2 | 890.03 ± 0.2 | 885.69 ± 0.2 | 881.34 ± 0.2 | 876.95 ± 0.2 | –
x1 = 0.3502 | 916.72 ± 0.22 | 912.48 ± 0.22 | 908.21 ± 0.22 | 903.94 ± 0.22 | 899.65 ± 0.22 | 895.33 ± 0.22 | 891 ± 0.22 | –
x1 = 0.4001 | 928.53 ± 0.24 | 924.32 ± 0.24 | 920.09 ± 0.24 | 915.84 ± 0.24 | 911.58 ± 0.24 | 907.3 ± 0.24 | 903 ± 0.24 | –
x1 = 0.4427 | 938.12 ± 0.26 | 933.94 ± 0.26 | 929.73 ± 0.26 | 925.51 ± 0.26 | 921.28 ± 0.26 | 917.02 ± 0.26 | 912.75 ± 0.26 | –
x1 = 0.4502 | 939.89 ± 0.26 | 935.71 ± 0.26 | 931.52 ± 0.26 | 927.31 ± 0.26 | 923.08 ± 0.26 | 918.84 ± 0.26 | 914.57 ± 0.26 | –
x1 = 0.5002 | 950.16 ± 0.28 | 946.01 ± 0.28 | 941.84 ± 0.28 | 937.66 ± 0.28 | 933.46 ± 0.28 | 929.24 ± 0.28 | 925 ± 0.28 | –
x1 = 0.5501 | 959.78 ± 0.3 | 955.65 ± 0.3 | 951.5 ± 0.3 | 947.35 ± 0.3 | 943.18 ± 0.3 | 938.99 ± 0.3 | 934.78 ± 0.3 | –
x1 = 0.6001 | 968.89 ± 0.32 | 964.79 ± 0.32 | 960.67 ± 0.32 | 956.54 ± 0.32 | 952.39 ± 0.32 | 948.22 ± 0.32 | 944.04 ± 0.31 | –
x1 = 0.6501 | 977.39 ± 0.34 | 973.31 ± 0.34 | 969.21 ± 0.34 | 965.1 ± 0.34 | 960.97 ± 0.34 | 956.84 ± 0.34 | 952.68 ± 0.34 | –
x1 = 0.7005 | 985.59 ± 0.36 | 981.53 ± 0.36 | 977.45 ± 0.36 | 973.37 ± 0.36 | 969.28 ± 0.36 | 965.16 ± 0.36 | 961.03 ± 0.36 | –
x1 = 0.7479 | 992.48 ± 0.39 | 988.45 ± 0.39 | 984.39 ± 0.38 | 980.32 ± 0.38 | 976.24 ± 0.38 | 972.15 ± 0.38 | 968.04 ± 0.38 | –
x1 = 0.8002 | 1000.19 ± 0.41 | 996.18 ± 0.41 | 992.15 ± 0.41 | 988.11 ± 0.41 | 984.06 ± 0.41 | 980 ± 0.41 | 975.92 ± 0.41 | –
x1 = 0.8502 | 1006.55 ± 0.44 | 1002.56 ± 0.44 | 998.55 ± 0.44 | 994.53 ± 0.43 | 990.5 ± 0.43 | 986.45 ± 0.43 | 982.4 ± 0.43 | –
x1 = 0.8967 | 1012.63 ± 0.46 | 1008.66 ± 0.46 | 1004.66 ± 0.46 | 1000.67 ± 0.46 | 996.66 ± 0.46 | 992.63 ± 0.46 | 988.6 ± 0.45 | –
x1 = 0.9501 | 1018.78 ± 0.49 | 1014.82 ± 0.49 | 1010.85 ± 0.49 | 1006.88 ± 0.49 | 1002.89 ± 0.48 | 998.89 ± 0.48 | 994.88 ± 0.48 | –
